Experimental data reported in EP4759825A1, “PEPTIDE FRAGMENT AND USE THEREOF” (Toagosei Co., Ltd., priority 2023, dated 2026).
FAM = 5(6)-carboxyfluorescein

Tested on: NSC-34 cells
Assay: Evaluation of cell membrane permeability (flow cytometer, mean fluorescence intensity of cells cultured with the construct)
Assay type: cell-based, mouse
Conditions: mean fluorescence intensity (FL2 detector), 10 µM construct or FAM, 0.5% DMSO, 20 hours at 37°C, 5% CO2
Method: As the eukaryotic cells, NSC-34 cells (mouse motor neuron-like hybrid cell line) were used and the cell membrane permeability of the prepared construct was evaluated.
The NSC-34 cell was cultured in 10% fetal bovine serum (FBS)-containing Dulbecco's modified Eagle's medium (DMEM (Cat No. 044-29765, manufactured by FUJIFILM Wako Pure Chemical Corporation)), which is a culture medium.
The NSC-34 cell that adhered to a culture plate was cleaned with PBS and then, a 0.25%-trypsin/EDTA solution was added thereto, and incubation was performed for three minutes at 37°C. […]
Regarding the obtained cells (cell pellet), the cell membrane permeability was analyzed using a flow cytometer. […]
Using the aforementioned flow cytometer, gating based on forward scatter (FSC) and side scatter (SSC) was performed to set a gate about a cell group to be analyzed, and the fluorescence intensity was measured about the cell group in this gate. Note that the number of cells of the cell group to be analyzed was set to about 10000, and the analysis was performed. The fluorescence intensity was measured using a fluorescence detector FL2 of the flow cytometer (optimum detection wavelength around 543 nm) capable of detecting the fluorescence wavelength of FAM. […]

Substance	MFI
5(6)-carboxyfluorescein [Example 6]	8.83
Ac-KKRTLRKSNRKKR-FAM (Ac-KKRTLRKSNRKKR-{FAM}) [Example 5]	22.4
